The values below come from ChEMBL document CHEMBL2321780, “Fluorinated quinazolinones as potential radiotracers for imaging kinesin spindle protein expression” (2013).

Broadly, the GI50 is the concentration at which growth is held to half of that of the control. Low values mean more potent growth inhibition, high ones less potent growth inhibition.

One assay has as its system MCF7. Put plainly: Nonspecific cytotoxicity against human MCF7 cells after 44 hrs by MTT assay. The format is functional. Conditions: MCF7, 44 h. A general note: Formazan colour is commonly taken as a measure of viable cells.
The next assay deals with DU-145. Put plainly: Nonspecific cytotoxicity against human DU145 cells after 44 hrs by MTT assay. The class given is functional. The settings on record: DU-145, 44 h.
The target of assay [1] is T1, Kinesin-1 heavy chain (Homo sapiens) (UniProt P33176).
T1 sequence (whole entry): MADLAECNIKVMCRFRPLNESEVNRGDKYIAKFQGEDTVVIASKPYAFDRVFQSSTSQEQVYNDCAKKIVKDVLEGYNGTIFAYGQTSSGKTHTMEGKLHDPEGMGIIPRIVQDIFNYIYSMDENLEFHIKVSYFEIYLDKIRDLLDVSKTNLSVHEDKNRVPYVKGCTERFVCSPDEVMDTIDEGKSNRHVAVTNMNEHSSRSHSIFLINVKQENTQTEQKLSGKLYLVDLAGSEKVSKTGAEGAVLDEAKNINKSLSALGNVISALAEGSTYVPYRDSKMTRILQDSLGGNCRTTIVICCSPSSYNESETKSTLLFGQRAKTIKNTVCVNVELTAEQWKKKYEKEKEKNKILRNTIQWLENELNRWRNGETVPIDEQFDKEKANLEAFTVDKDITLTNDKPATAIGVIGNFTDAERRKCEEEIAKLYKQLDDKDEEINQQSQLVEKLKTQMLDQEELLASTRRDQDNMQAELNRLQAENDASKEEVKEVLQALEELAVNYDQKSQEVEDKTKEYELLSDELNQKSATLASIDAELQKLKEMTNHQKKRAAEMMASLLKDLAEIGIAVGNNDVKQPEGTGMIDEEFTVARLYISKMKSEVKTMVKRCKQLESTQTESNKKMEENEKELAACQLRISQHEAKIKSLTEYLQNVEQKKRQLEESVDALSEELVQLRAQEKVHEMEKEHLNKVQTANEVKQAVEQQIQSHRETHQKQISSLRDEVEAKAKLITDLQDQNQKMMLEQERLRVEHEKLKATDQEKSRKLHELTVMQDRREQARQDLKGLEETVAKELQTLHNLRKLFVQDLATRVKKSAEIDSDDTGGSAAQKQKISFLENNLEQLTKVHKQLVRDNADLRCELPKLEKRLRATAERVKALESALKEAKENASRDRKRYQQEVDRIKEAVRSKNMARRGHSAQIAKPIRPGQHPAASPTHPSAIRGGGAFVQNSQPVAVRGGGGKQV
Description: Inhibition of KNH (unknown origin)-mediated ATP hydrolysis assessed as residual activity at 1 uM after 10 to 20 mins by spectrophotometric analysis.

Assay [2] addresses Centromere-associated protein E (Homo sapiens) (UniProt Q02224). Put plainly: Inhibition of CENP-E (unknown origin)-mediated ATP hydrolysis assessed as residual activity at 1 uM after 10 to 20 mins by spectrophotometric analysis.
The target in assay [3] is T2, Kinesin-like protein KIF11 (Homo sapiens) (UniProt P52732).
T2 sequence (whole entry): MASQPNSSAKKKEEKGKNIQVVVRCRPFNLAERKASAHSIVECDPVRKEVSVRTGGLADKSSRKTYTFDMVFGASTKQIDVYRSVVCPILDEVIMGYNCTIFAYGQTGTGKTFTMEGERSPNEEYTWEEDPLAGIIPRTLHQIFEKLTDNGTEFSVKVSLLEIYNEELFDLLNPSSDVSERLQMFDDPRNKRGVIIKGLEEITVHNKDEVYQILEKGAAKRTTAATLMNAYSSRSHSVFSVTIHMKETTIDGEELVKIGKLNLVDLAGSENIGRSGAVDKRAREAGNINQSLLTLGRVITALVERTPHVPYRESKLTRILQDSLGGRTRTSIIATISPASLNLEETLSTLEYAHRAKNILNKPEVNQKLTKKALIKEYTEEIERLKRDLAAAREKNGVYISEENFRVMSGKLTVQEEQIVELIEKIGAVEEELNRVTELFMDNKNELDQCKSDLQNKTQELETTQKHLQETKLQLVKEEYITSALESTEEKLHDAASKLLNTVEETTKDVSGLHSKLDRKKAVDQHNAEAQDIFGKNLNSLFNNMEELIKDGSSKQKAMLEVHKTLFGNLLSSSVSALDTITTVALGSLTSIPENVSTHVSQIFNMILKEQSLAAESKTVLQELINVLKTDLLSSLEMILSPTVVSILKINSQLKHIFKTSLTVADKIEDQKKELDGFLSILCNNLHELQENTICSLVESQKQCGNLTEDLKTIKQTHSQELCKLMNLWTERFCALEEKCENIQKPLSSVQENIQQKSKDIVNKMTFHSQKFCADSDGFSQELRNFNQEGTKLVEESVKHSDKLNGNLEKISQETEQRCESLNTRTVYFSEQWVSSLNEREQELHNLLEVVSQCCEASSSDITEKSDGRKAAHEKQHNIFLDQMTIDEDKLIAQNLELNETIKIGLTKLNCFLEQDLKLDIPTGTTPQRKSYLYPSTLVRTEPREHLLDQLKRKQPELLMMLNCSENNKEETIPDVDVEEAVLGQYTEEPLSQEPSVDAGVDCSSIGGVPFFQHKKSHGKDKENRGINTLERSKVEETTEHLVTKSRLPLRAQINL
Description: Inhibition of KSP (unknown origin)-mediated ATP hydrolysis assessed as residual activity at 1 uM after 10 to 20 mins by spectrophotometric analysis.

SMILES strings stand for the structures.

Sequence of Centromere-associated protein E (Homo sapiens) (Q02224 whole entry): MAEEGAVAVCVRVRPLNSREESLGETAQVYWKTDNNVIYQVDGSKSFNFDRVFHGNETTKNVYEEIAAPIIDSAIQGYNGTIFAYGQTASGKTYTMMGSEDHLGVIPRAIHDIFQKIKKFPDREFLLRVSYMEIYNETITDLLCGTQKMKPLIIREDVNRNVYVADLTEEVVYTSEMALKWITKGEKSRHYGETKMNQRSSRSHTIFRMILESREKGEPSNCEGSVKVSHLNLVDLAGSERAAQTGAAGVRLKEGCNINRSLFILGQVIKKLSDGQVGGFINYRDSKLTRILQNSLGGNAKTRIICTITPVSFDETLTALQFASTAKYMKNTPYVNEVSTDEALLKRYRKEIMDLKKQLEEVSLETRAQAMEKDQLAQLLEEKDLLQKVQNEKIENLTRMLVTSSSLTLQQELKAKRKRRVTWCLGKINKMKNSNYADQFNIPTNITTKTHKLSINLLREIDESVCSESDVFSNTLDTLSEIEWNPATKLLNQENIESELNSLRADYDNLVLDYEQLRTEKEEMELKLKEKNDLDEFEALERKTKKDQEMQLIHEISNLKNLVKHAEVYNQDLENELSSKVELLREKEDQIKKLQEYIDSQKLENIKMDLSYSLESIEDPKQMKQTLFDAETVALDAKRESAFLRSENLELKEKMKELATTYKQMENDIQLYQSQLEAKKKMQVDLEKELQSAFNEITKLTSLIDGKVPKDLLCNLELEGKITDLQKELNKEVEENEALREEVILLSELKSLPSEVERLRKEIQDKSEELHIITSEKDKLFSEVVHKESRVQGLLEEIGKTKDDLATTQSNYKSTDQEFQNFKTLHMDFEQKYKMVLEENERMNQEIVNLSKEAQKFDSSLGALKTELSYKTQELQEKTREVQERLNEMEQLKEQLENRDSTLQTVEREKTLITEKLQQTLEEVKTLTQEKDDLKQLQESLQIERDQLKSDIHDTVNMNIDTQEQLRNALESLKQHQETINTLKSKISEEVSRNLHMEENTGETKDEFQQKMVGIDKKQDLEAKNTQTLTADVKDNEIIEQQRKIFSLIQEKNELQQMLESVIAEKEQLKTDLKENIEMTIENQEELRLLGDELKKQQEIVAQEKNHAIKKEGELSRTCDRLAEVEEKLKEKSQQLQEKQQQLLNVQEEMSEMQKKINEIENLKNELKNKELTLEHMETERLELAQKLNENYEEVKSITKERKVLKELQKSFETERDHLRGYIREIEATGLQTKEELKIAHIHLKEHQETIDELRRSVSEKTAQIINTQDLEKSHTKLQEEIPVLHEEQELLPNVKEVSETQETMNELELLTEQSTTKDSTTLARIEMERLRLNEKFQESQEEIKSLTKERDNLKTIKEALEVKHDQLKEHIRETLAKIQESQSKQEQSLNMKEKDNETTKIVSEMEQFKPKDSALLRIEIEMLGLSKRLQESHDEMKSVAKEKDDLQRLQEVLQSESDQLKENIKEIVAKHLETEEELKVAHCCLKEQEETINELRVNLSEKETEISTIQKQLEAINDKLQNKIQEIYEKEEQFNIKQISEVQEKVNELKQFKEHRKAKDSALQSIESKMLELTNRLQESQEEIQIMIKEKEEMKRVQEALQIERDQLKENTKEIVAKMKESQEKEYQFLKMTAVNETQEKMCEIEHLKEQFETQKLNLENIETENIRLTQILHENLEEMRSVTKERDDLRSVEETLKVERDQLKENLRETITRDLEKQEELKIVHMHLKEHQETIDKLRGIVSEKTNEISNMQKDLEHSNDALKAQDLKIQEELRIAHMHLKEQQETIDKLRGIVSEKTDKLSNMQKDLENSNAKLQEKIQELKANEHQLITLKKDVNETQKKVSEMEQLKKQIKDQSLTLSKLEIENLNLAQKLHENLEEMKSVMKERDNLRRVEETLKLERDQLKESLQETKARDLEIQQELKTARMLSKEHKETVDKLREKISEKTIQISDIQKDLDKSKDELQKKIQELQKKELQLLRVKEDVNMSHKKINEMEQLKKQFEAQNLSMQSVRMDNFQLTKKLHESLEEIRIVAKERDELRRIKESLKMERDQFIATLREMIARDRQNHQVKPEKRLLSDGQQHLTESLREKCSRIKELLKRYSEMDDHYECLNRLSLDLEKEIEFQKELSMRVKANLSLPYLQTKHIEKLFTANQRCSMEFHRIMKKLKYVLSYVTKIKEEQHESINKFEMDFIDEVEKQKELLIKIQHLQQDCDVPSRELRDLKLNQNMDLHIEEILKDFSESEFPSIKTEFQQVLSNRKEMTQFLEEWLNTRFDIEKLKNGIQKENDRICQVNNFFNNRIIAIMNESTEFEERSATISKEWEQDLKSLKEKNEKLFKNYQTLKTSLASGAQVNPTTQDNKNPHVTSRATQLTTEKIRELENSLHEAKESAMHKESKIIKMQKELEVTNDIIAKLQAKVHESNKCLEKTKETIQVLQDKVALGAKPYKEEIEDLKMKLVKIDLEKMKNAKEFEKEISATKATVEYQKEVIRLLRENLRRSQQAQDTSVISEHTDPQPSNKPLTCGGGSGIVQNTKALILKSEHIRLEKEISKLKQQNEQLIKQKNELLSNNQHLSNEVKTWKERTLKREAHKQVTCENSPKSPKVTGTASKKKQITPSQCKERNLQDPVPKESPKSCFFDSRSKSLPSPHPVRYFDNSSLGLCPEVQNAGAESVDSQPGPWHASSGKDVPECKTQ

Turning to `CC(C)[C@@H](c1nc2cc(Cl)ccc2c(=O)n1Cc1ccccc1)N(CCCN)C(=O)c1ccccc1F`, the GI50 came to 2000 nM in the assay on MCF7 and 720 nM in the assay on DU-145. For the same molecule, the Activity in assay [1] was determined as 97.9%; in assay [2] it was 97.9%; in assay [3], 95.9%.
Take `CC(C)[C@@H](c1nc2cc(Cl)ccc2c(=O)n1Cc1ccccc1)N(CCCN)C(=O)c1cccc(F)c1`: the GI50 amounted to 630 nM in the assay on MCF7 and 520 nM in the assay on DU-145. Besides, the Activity is 98.9% in assay [1], 100% in assay [2] and 95.5% in assay [3].
As for `Cc1ccc(C(=O)N(CCCN)[C@H](c2nc3cc(Cl)ccc3c(=O)n2Cc2ccccc2)C(C)C)cc1`, the Activity in assay [1] was found to be 96.8%; in assay [2], 99.1%; in assay [3], 99.4%.
On the same counts, the results for `Cc1ccc(C(=O)N(CCCN)[C@@H](c2nc3cc(Cl)ccc3c(=O)n2Cc2ccccc2)C(C)C)cc1` [ISPINESIB] are 102%, 98% and 8.8%.
As to `CC(C)C(c1nc2cc(Cl)ccc2c(=O)n1Cc1ccccc1)N(CCCN)C(=O)c1cccc(F)c1` (racemic), the GI50 in the assay on MCF7 worked out at 2900 nM; in the assay on DU-145, 3300 nM. The Activity turned out to be 99.1% in assay [1], 97.4% in assay [2] and 10.1% in assay [3].
On the same counts, the results for `CC(C)[C@@H](c1nc2cc(Cl)ccc2c(=O)n1Cc1ccccc1)N(CCCN)C(=O)c1ccc(F)cc1` are 1100 nM, 350 nM, 99.2%, 97.4% and 96.1%.
On the same counts, the results for `CC(C)[C@H](c1nc2cc(Cl)ccc2c(=O)n1Cc1ccccc1)N(CCCN)C(=O)c1ccc(F)cc1` are 2500 nM, 2200 nM, 97.1%, 99.8% and 2.7%.
For `CC(C)[C@H](c1nc2cc(Cl)ccc2c(=O)n1Cc1ccccc1)N(CCCN)C(=O)c1ccccc1F`, in that order: 3000 nM, 5600 nM, 97.2%, 99.1% and 7.5%.
